Assay results: patent US11542259B2, “Compounds for the treatment of kinase-dependent disorders” (Exelixis, Inc., priority 2018, dated 2023)

Tests used:
[1] = target: Human Mer (residues R557-E882 with H628Q and R794A) (Homo sapiens (Human), UniProt Q12866); test: Human Mer kinase assay (33P radiometric, KinaseProfiler); format: biochemical; details: 10 μM ATP
Protocol: (§1) Kinase activity and compound inhibition were investigated using the ^33P-Phosphoryl transfer radiometric kinase assay, performed using the KinaseProfiler™ service of Eurofins Pharma Discovery Services UK Limited. Dose-response experiments were performed using nine compound concentrations in a 96-well microtiter plate. For each assay, all compounds were prepared to a 50× final assay concentration (50 μM) in 100% DMSO, then diluted in a half-log series, with the final top concentration at 1 μM. This working stock of the compound was added to the assay well as the first component in the reaction, followed by the remaining components as detailed in the following assay protocols below. The positive control wells (100% kinase activity) contain all components of the reaction including 2% DMSO (control for solvent effects), except the compound of interest. Blank wells contain all components of the reaction, with the reference inhibitor, staurosporine. This reference compound was used to abolish kinase activity and generated the 0% kinase activity base-line. IC50 values were calculated by nonlinear regression analysis using the sigmoidal dose-response (variable slope) curve fit on XLFit version 5.3 (ID Business Solutions).
Human Mer (residues R557-E882 with H628Q and R794A, 0.7 nM) was incubated with 8 mM MOPS pH 7.0, 0.2 mM EDTA, 30 mM NaCl, 250 μM GGMEDIYFEFMGGKKK (SEO ID NO. 44). 10 mM magnesium acetate, and 10 μM [γ-^33P-ATP]. The reaction was initiated by the addition of the Mg/ATP mix. After incubation for 40 minutes at room temperature, the reaction was stopped by the addition of phosphoric acid to a concentration of 0.5%. A reaction aliquot of 10 μL was then spotted onto a P30 filtermat and washed four times for 4 minutes in 0.425% phosphoric acid and once in methanol prior to drying and scintillation counting. Incorporated ^33P was measured using the Wallac Microbeta scintillation counter (Perkin Elmer).

[2] = target: Human Met (residues R974-S1390 with A1209G and V1290L) (Homo sapiens, UniProt P08581); test: Human Met kinase assay (33P radiometric, KinaseProfiler); format: biochemical; details: 10 μM ATP, read-out: c-Met IC50
Protocol: as §1
Human Met (residues R974-S1390 with A1209G and V1290L, 3.4 nM) was incubated with 8 mM MOPS pH 7.0, 0.2 mM EDTA, 250 μM KKKGQEEEYVFIE (SEO ID NO. 45), 1 mM sodium orthovanadate, 5 mM […], 10 mM magnesium acetate, and 10 μM [γ-33P-ATP]. The reaction was initiated by the addition of the Mg/ATP mix. After incubation for 40 minutes at room temperature, the reaction was stopped by the addition of phosphoric acid to a concentration of 0.5%. A reaction aliquot of […] was then spotted onto a P30 filtermat and washed four times for 4 minutes in 0.425% phosphoric acid and once in methanol prior to drying and scintillation counting. Incorporated 33P was measured using the Wallac Microbeta scintillation counter (Perkin Elmer).

[3] = target: Human Axl (residues H473-A894 with Q764R) (Homo sapiens (Human), UniProt P30530, Q764R); test: Human AXL kinase assay (33P radiometric, KinaseProfiler); format: biochemical; details: 10 μM ATP
Protocol: as §1
Human Axl (residues H473-A894 with Q764R, 161 nM) was incubated with 8 mM MOPS pH 7.0, 0.2 mM EDTA, 250 μM KKSRGDYMTMQIG (SEO ID NO. 43) 10 mM magnesium acetate and 10 μM [γ-33P-ATP]. The reaction was initiated by the addition of the Mg/ATP mix. After incubation for 40 minutes at room temperature, the reaction was stopped by the addition of phosphoric acid to a concentration of 0.5%. A reaction aliquot of 10 μL was then spotted onto a P30 filtermat and washed four times for 4 minutes in 0.425% phosphoric acid and once in methanol prior to drying and scintillation counting. Incorporated ^33P was measured using the Wallac Microbeta scintillation counter (Perkin Elmer).

[4] = target: Met (Homo sapiens (Human), UniProt P08581); test: Met autophosphorylation ELISA in PC-3 cells; format: cell-based; details: cellular, HGF stimulated, read-out: c-Met IC50
Protocol: PC-3 prostate cancer cells (ATCC #CRL-1435) were seeded at 4×10^4 cells/well onto 24-well plates (Greiner #662165), in DMEM (Thermo Fisher #11995-040) containing 10% FBS (Thermo Fisher #26140-079), 1% MEM NEAA (Thermo Fisher #11140-050), 1% GlutaMax (Thermo Fisher #35050-061), and 1% Penicillin Streptomycin (Thermo Fisher #15140-122). PC-3 cells were incubated at 37° C., 5% CO2 for 24 h and then starved for 3 h in serum-free medium. Test compounds were serially diluted to produce an 8-point dose curve in fresh serum-free medium to a final concentration of 0.3% DMSO (vehicle) and added to the cells and incubated for 1 h. Cells were then stimulated with 100 ng/mL recombinant human HGF (R&D Systems #294-HG-250) for 10 min, washed with cold PBS and immediately lysed with 130 μL of cold 1× lysis buffer [20 mM Tris, 137 mM sodium chloride, 2 mM EDTA, 10% glycerol, 1% NP-40 alternative, 1 mM activated sodium orthovanadate, 1 mM PefaBloc SC (Sigma-Aldrich #11429868001), protease/phosphatase inhibitor tablet (Thermo Fisher #A32959)]. Lysates were clarified by centrifugation and 100 μL/well added into the PathScan phospho-Met (panTyr) Sandwich ELISA (Cell Signaling Technology #7333). Assay was performed according to manufacturer's instructions. Positive control wells (100% activity) contained HGF-stimulated, DMSO-treated cell lysates. Negative control wells (0% activity) contained HGF-stimulated, reference inhibitor-treated cell lysates. IC50 values were calculated by nonlinear regression analysis using a 4-parameter logistic curve fit in ActivityBase XE (IDBS).

[5] = target: AXL (Homo sapiens (Human), UniProt P30530); test: AXL autophosphorylation ELISA in A-172 cells; format: cell-based; details: cellular, Gas6 stimulated
Protocol: A-172 glioblastoma cells (ATCC #CRL-1620) were seeded at 2.5×10^5 cells/well onto 24-well plates (Greiner #662165), in DMEM (Thermo Fisher #11995-040) containing 10% FBS (Thermo Fisher #26140-079), 1% MEM NEAA (Thermo Fisher #11140-050), 1% GlutaMax (Thermo Fisher #35050-061) and 1% Penicillin Streptomycin (Thermo Fisher #15140-122). A-172 cells were incubated at 37° C., 5% CO2 for 24 h and then starved for 24 h in serum-free medium. Test compounds were serially diluted to produce an 8-point dose curve in fresh serum-free medium to a final concentration of 0.3% DMSO (vehicle) and added to the cells and incubated for 1 h. Cells were then stimulated with 1 μg/mL recombinant human Gas6 (R&D Systems #885-GSB-500) for 15 min, washed with cold PBS and immediately lysed with 150 μL of cold 1× lysis buffer [20 mM Tris, 137 mM sodium chloride, 2 mM EDTA, 10% glycerol, 1% NP-40 alternative, 1 mM activated sodium orthovanadate, 1 mM PefaBloc SC (Sigma-Aldrich #11429868001), protease/phosphatase inhibitor tablet (Thermo Fisher #A32959)]. Lysates were collected and 100 μL/well added into the human phospho-AXL DuoSet IC ELISA (R&D Systems #DYC2228-2). Assay was performed according to manufacturer's instructions and sample phospho-AXL concentrations were extrapolated using human phospho-AXL control (R&D Systems #841645) as a standard. Positive control wells (100% activity) contained Gash-stimulated, DMSO-treated cell lysates. Negative control wells (0% activity) contained Gash-stimulated, reference inhibitor-treated cell lysates. IC50 values were calculated by nonlinear regression analysis using a 4-parameter logistic curve fit in ActivityBase XE (IDBS).

[6] = target: KDR (Homo sapiens (Human), UniProt P35968); test: KDR autophosphorylation ELISA in HUVEC cells; format: cell-based; details: cellular, VEGF165 stimulated
Protocol: Human umbilical vein endothelial cells or HUVEC (Lonza #C2519A) were seeded at 2×10^4 cells/well onto 96-well plates (Corning #3904), in EGM-2 growth medium (Lonza #CC-3162) containing 1% Penicillin Streptomycin (Thermo Fisher #15140-122). HUVEC cells were incubated at 37° C., 5% CO2 for 24 h and then starved for 24 h in serum-free EBM-2 basal medium (Lonza #CC-3156) containing 1% Penicillin Streptomycin. Test compounds were serially diluted to produce an 8-point dose curve in fresh serum-free medium to a final concentration of 0.3% DMSO (vehicle) and added to the cells and incubated for 1 h. Cells were then stimulated with 100 ng/mL recombinant human VEGF165 (R&D Systems #293-VE-500) for 5 min, washed with cold PBS, and immediately lysed with 130 μL of cold 1× lysis buffer [20 mM Tris, 137 mM sodium chloride, 2 mM EDTA, 10% glycerol, 1% NP-40 alternative, 1 mM activated sodium orthovanadate, 1 mM PefaBloc SC (Sigma-Aldrich #11429868001), protease/phosphatase inhibitor tablet (Thermo Fisher #A32959)]. Lysates were collected and 100 μL/well added into the human phospho-KDR DuoSet IC ELISA (R&D Systems #DYC1766-2). Assay was performed according to manufacturer's instructions and sample phospho-KDR concentrations were extrapolated using human phospho-KDR control (R&D Systems #841421) as a standard. Positive control wells (100% activity) contained VEGF165-stimulated, DMSO-treated cell lysates. Negative control wells (0% activity) contained non-stimulated cell lysates. IC50 values were calculated by nonlinear regression analysis using a 4-parameter logistic curve fit in ActivityBase XE (IDBS).

Chain of Human Axl (residues H473-A894 with Q764R) (P30530 473-894 Q764R): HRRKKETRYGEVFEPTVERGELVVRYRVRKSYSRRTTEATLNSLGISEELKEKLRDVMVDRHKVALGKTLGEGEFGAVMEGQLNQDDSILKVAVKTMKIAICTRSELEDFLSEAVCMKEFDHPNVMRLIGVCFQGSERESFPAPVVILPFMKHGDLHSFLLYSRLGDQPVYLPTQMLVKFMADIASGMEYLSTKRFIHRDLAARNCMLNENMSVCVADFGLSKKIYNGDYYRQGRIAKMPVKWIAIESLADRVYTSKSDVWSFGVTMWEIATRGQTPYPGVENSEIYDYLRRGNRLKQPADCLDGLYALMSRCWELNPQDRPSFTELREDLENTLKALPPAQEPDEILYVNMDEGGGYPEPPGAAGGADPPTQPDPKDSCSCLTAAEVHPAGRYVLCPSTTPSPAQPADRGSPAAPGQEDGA
Chain of KDR (P35968 20-1356): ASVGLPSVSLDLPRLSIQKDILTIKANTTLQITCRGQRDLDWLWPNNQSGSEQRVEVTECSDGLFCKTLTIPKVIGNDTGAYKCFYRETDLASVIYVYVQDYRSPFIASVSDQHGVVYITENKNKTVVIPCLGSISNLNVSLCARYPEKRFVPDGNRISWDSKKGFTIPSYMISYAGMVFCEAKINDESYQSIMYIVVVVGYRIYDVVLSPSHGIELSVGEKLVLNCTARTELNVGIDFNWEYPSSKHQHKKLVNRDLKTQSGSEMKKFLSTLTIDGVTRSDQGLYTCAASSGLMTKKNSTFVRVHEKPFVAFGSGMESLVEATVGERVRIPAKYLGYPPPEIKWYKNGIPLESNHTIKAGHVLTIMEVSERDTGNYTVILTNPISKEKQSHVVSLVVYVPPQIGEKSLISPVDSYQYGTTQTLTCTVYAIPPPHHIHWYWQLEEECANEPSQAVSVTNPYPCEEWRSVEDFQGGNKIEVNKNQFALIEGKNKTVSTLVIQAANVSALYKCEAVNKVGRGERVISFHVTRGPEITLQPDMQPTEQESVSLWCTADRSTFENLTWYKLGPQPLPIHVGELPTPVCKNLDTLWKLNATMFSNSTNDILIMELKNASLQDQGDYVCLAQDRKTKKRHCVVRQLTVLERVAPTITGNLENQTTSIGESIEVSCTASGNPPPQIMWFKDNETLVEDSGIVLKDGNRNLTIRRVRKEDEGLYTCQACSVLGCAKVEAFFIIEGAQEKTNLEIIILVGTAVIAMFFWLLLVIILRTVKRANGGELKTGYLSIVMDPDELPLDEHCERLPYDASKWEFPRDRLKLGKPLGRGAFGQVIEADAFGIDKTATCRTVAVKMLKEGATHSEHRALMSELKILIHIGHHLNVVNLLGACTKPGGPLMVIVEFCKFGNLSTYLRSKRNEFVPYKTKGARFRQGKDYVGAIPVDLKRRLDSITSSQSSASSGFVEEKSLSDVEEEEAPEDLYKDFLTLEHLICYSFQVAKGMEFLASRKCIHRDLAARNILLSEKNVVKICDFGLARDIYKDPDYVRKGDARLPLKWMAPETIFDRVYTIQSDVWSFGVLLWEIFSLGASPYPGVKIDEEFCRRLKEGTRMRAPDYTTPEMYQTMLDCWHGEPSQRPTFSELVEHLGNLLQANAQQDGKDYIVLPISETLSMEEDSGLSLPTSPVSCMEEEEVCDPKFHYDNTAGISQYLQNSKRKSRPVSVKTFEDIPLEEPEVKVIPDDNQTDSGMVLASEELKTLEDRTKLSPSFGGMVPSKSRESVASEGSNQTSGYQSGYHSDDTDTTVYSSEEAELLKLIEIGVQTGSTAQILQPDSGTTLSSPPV
Chain of Human Mer (residues R557-E882 with H628Q and R794A) (Q12866 557-882, stated change not applied): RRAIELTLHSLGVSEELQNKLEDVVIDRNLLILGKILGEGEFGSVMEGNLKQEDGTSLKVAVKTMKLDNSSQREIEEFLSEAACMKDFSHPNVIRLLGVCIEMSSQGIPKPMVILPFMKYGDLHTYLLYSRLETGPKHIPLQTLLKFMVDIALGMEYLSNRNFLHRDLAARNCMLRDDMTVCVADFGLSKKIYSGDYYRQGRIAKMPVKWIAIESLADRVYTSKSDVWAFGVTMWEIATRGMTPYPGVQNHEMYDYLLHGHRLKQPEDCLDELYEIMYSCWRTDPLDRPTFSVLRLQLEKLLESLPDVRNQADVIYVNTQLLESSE
Chain of AXL (P30530 26-894): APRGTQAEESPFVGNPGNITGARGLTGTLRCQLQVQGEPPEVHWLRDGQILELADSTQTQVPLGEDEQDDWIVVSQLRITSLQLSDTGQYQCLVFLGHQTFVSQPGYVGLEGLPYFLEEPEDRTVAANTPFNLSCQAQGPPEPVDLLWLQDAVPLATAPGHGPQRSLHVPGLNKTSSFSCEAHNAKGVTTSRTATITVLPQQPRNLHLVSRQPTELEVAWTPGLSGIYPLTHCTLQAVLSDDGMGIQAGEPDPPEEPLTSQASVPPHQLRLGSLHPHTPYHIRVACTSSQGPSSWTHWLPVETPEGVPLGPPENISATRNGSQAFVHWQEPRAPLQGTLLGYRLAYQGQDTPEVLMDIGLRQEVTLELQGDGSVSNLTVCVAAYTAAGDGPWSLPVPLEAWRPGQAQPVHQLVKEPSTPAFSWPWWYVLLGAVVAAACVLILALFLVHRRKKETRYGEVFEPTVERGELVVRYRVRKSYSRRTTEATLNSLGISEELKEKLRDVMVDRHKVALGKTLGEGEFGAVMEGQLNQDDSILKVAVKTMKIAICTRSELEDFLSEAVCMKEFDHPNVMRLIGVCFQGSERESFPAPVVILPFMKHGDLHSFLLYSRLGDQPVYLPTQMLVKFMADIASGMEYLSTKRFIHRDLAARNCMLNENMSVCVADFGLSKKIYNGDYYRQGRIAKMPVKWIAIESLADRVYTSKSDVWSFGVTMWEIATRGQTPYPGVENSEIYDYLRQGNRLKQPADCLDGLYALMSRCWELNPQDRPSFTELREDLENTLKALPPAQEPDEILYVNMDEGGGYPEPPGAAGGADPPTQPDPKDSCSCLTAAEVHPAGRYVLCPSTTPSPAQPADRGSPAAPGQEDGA
Chain of Met (P08581 25-1390): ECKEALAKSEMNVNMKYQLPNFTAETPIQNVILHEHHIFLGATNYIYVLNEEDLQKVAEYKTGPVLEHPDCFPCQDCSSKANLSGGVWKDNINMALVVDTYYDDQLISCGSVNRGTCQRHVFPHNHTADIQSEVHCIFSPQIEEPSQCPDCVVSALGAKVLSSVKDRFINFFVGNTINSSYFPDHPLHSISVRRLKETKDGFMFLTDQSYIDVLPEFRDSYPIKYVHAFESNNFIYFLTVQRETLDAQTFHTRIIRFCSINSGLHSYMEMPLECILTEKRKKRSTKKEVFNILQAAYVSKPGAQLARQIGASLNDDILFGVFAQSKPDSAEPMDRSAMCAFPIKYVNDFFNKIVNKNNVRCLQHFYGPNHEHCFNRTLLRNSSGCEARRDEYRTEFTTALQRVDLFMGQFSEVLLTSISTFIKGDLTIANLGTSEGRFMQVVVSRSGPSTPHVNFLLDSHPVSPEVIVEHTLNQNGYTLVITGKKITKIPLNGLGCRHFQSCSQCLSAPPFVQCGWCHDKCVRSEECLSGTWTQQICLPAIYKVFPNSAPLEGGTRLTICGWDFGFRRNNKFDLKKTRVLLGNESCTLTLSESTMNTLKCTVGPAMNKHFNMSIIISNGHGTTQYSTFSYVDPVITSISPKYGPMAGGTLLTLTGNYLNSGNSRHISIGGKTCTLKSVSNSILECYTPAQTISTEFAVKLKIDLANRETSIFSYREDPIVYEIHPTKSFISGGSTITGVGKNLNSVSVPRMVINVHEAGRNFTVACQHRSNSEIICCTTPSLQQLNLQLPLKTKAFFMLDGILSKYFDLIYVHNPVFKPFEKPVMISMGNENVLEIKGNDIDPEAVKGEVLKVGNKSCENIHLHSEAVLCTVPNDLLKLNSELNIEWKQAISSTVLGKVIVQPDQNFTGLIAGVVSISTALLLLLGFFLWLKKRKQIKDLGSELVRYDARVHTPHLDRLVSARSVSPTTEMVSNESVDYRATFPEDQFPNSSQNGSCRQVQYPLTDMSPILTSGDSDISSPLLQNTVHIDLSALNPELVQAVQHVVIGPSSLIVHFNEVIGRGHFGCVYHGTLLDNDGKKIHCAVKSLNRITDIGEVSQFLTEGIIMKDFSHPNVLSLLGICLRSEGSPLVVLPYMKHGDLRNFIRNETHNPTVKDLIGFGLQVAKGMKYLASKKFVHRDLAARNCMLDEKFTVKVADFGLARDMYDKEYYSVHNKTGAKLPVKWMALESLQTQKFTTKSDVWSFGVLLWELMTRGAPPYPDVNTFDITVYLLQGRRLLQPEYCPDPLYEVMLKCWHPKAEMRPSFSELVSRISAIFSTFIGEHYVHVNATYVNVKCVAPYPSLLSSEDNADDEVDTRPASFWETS

Row | Compound | IC50 [1] | IC50 [2] | IC50 [3] | IC50 [4] | IC50 [5] | IC50 [6]
1 | COc1cc2nccc(Oc3ccc(NC(=O)C4(C(=O)Nc5ccc(F)cc5)CC4)cc3)c2cc1C(=O)NCCN(C)C [Compound 10, 1-N-[4-[6-[2-(dimethylamino)ethylcarbamoyl]-7-methoxyquinolin-4-yl]oxyphenyl]-1-N′-(4-fluorophenyl)cyclopropane-1,1-dicarboxamide] | ≤ 0.01 µM | ≤ 0.01 µM | 0.01 to 0.1 µM |  |  | 
2 | COc1cc2nccc(Oc3ccc(NC(=O)C4(C(=O)Nc5ccc(F)cc5)CC4)cc3)c2cc1C(=O)NCCN1CCCCC1 [Compound 11, 1-N′-(4-fluorophenyl)-N-[4-[7-methoxy-6-(2-piperidin-1-ylethylcarbamoyl)quinolin-4-yl]oxyphenyl]cyclopropane-1,1-dicarboxamide] | ≤ 0.01 µM | ≤ 0.01 µM |  | 0.01 to 0.1 µM | ≤ 0.01 µM | ≤ 0.01 µM
3 | COc1cc2nccc(Oc3ccc(NC(=O)C4(C(=O)Nc5ccc(F)cc5)CC4)cc3)c2cc1C(=O)NCCN1CCOCC1 [Compound 12, 1-N′-(4-fluorophenyl)-1-N-[4-[7-methoxy-6-(2-morpholin-4-ylethylcarbamoyl)quinolin-4-yl]oxyphenyl]cyclopropane-1,1-dicarboxamide] | ≤ 0.01 µM | ≤ 0.01 µM |  | 0.01 to 0.1 µM | ≤ 0.01 µM | ≤ 0.01 µM
4 | COc1cc2nccc(Oc3ccc(NC(=O)C4(C(=O)Nc5ccc(F)cc5)CC4)cc3)c2cc1C(=O)NC[C@H]1CCCN1 [Compound 21, 1-N′-(4-fluorophenyl)-1-N-[4-[7-methoxy-6-[[(2R)-pyrrolidin-2-yl]methylcarbamoyl]quinolin-4-yl]oxyphenyl]cyclopropane-1,1-dicarboxamide] | ≤ 0.01 µM | ≤ 0.01 µM |  | 0.01 to 0.1 µM | ≤ 0.01 µM | 0.01 to 0.1 µM
5 | COc1cc2nccc(Oc3ccc(NC(=O)C4(C(=O)Nc5ccc(F)cc5)CC4)cc3)c2cc1C(=O)NC[C@@H]1CCCN1 [Compound 22, 1-N′-(4-fluorophenyl)-1-N-[4-[7-methoxy-6-[[(2S)-pyrrolidin-2-yl]methylcarbamoyl]quinolin-4-yl]oxyphenyl]cyclopropane-1,1-dicarboxamide] | ≤ 0.01 µM | ≤ 0.01 µM |  | 0.01 to 0.1 µM | ≤ 0.01 µM | 0.01 to 0.1 µM
6 | NC(=O)c1cc2c(Oc3ccc(NC(=O)C4(C(=O)Nc5ccc(F)cc5)CC4)cc3)ccnc2cc1Cl [Compound 68, 1-N-[4-(6-carbamoyl-7-chloroquinolin-4-yl)oxyphenyl]-1-N′-(4-fluorophenyl)cyclopropane-1,1-dicarboxamide] | 0.01 to 0.1 µM | 0.01 to 0.1 µM | 0.1 to 1 µM |  |  | 
7 | NC(=O)c1cc2c(Oc3ccc(NC(=O)C4(C(=O)Nc5ccc(F)cc5)CC4)cc3)ccnc2cc1Br [Compound 69, 1-N-[4-(7-bromo-6-carbamoylquinolin-4-yl)oxyphenyl]-1-N′-(4-fluorophenyl)cyclopropane-1,1-dicarboxamide] | 0.01 to 0.1 µM | 0.01 to 0.1 µM | 0.1 to 1 µM |  |  | 
8 | Cc1cc2c(Oc3ccc(NC(=O)C4(C(=O)Nc5ccc(F)cc5)CC4)cc3)ccnc2cc1C(=O)O [Compound 141, 4-[4-[[1-[(4-fluorophenyl)carbamoyl]cyclopropanecarbonyl]amino]phenoxy]-6-methylquinoline-7-carboxylic acid] | > 1 µM | > 1 µM | > 1 µM |  |  | 
9 | O=C(O)c1ccc2c(Oc3ccc(NC(=O)C4(C(=O)Nc5ccc(F)cc5)CC4)cc3)ccnc2c1 [Compound 163, 4-[4-[[1-[(4-fluorophenyl)carbamoyl]cyclopropanecarbonyl]amino]phenoxy]quinoline-7-carboxylic acid] | 0.1 to 1 µM | 0.01 to 0.1 µM | 0.1 to 1 µM |  |  | 
